# Test results: BindingDB's records for patent US20230348450 (Genzyme, 2023)
# Values joined by “and” are separate entries in the source; they are usually repeats but may differ in a detail not shown here. Equal entries are not always repeated.
# Biological target: T1, Bisphosphoglycerate mutase (Homo sapiens, UniProt P07738)
# T1 sequence (P07738 whole entry): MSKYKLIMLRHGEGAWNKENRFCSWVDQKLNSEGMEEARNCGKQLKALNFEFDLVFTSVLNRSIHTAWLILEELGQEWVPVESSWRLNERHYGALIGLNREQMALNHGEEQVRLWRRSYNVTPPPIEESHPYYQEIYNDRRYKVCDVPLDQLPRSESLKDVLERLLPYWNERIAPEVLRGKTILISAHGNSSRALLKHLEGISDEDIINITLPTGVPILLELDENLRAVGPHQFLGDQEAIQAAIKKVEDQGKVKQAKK
# Experiment: BPGM Synthase Assay
# Protocol: To the assay plate was added Enzyme Solution (20 uL) to columns 2-22 and 24 of the assay plate. To columns 1 and 23 was added GAPDH Solution (20 uL). A separate compound plate was prepared at the desired concentrations and all wells were normalized with 5% DMSO. The compound plate was incubated for 30 minutes at RT. Next, the substrate solution (20 μL) was dispensed to all reaction wells and the plate was incubated for 60 minutes at RT. Koningic acid (1 μL) was added and the plate was incubated for 10 minutes at RT. […] Next, Resazurin Solution (10 μL) was added to all reaction wells and the plate was incubated for 30 minutes at RT.
row,Compound,IC50
1,"Cc1nc(COc2ccc(F)cn2)sc1-c1cccc(-c2ccc(C(=O)O)c(O)c2)c1 [US20230348450, Example 1]",1500 nM and 1000 nM
2,"Cc1nc(COc2ncccn2)sc1-c1cccc(-c2ccc(S(=O)(=O)CC(=O)O)cc2)n1 [US20230348450, Example 2]",146 nM
3,"Cc1nc(COc2ncccn2)sc1-c1cccc(-c2cc(C(=O)O)cs2)n1 [US20230348450, Example 3]",260 nM and 180 nM
4,"Cc1nc(COc2ccccn2)sc1-c1cccc(-c2ccc(C(=O)O)c(O)c2)c1 [US20230348450, Example 4]",590 nM and 710 nM
5,"Cc1nc(COc2ncccn2)sc1-c1cccc(-c2ccc(C(=O)O)c(O)c2)n1 [US20230348450, Example 6]",70 nM
6,"Cc1nc(COCC(=O)N(C)C)sc1-c1csc(-c2cc(O)c(C(=O)O)cc2F)n1 [US20230348450, Example 7]",60 nM
7,"COC(=O)NCc1nc(C)c(-c2nsc(-c3cc(O)c(C(=O)O)cc3F)n2)s1 [US20230348450, Example 8]",95 nM
8,"COC(=O)NCc1nc(C)c(-c2cccc(-c3ccc(C(=O)O)c(O)c3)n2)s1 [US20230348450, Example 9]",317 nM
9,"CC(=O)NCc1nc(C)c(-c2csc(-c3cc(O)c(C(=O)O)cc3F)n2)s1 [US20230348450, Example 10]",95 nM
10,"COC(=O)NCc1nc(C)c(-c2csc(-c3cc(O)c(C(=O)O)cc3F)n2)s1 [US20230348450, Example 209]",63 nM and 59 nM
